Data on seven compounds can be found in patent publication US6525001B1, “Substituted pyrimidine and pyridine herbicides” (Mid-American Commercialization Corporation, priority 1997, dated 2003).

Assay type in all cases: in vivo
The subject of test [1] is chickweed (Stellaria media). As to the kind of experiment: Test D. As to conditions: PREEMERGENCE
Test [2] has as its system blackgrass (Alopecurus myosuroides). As to the kind of experiment: Test D. To be noted: PREEMERGENCE
For test [3], the system named is wild mustard (Sinapis arvensis). Description: Test D. Details: key: 0 is no effect; 100 is complete control. As to conditions: PREEMERGENCE
For test [4], the system named is winter wheat (Triticum aestivum). As to the kind of experiment: Test D. Details: key: 0 is no effect. To be noted: PREEMERGENCE
Test [5] relates to common poppy (Papaver rhoeas). Description: Test D. On the set-up: key: 0 is no effect; 100 is complete control. As to conditions: PREEMERGENCE
In test [6] the test system is sugar beet (Beta vulgaris). Description: Test D. Details: key: 0 is no effect; 100 is complete control. To be noted: PREEMERGENCE
Test [7] concerns wild buckwheat (Polygonum convolvulus). Description: Test D. As to conditions: PREEMERGENCE
Test [8] has as its system littleseed canarygrass (Phalaris minor). As to the kind of experiment: Test D. To be noted: PREEMERGENCE
For test [9], the system named is windgrass (Apera spica-venti). As to the kind of experiment: Test D. On the set-up: key: 0 is no effect; 100 is complete control. To be noted: PREEMERGENCE
The subject of test [10] is green foxtail (Setaria viridis). As to the kind of experiment: Test D. As to conditions: PREEMERGENCE
Details: key: 0 is no effect; 100 is complete control.

Test [11] relates to Spanishneedles (Bidens bipinnata). Description: Test E pre-/postemergence/post directed. As to conditions: PREEMERGENCE
On the set-up: key: 0 is no effect; 100 is complete control. The method in brief: (§1)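 Three application modes in greenhouse pots: preemergence soil spray, postemergence foliar spray at two to four leaves, and post-directed spray to soil and plant base. Ratings of 0–100 injury, assigned visually against untreated controls 13 to 21 days later.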

Test [12] relates to Russian thistle (Salsola kali). As to the kind of experiment: Test D. To be noted: PREEMERGENCE
Test [13] relates to ivyleaf speedwell (Veronica hederaefolia). As to the kind of experiment: Test D. Details: key: 0 is no effect; 100 is complete control. As to conditions: PREEMERGENCE
Test [14] relates to pitted morningglory (Ipomoea lacunosa). As to the kind of experiment: Test E pre-/postemergence/post directed. Details: key: 0 is no effect; 100 is complete control. As to conditions: PREEMERGENCE
In a few lines: as §1

Test [15] has as its system alexandergrass (Brachiaria plantaginea). Description: Test E pre-/postemergence/post directed. To be noted: PREEMERGENCE, Rate 250 g/ha. On the set-up: key: 0 is no effect; 100 is complete control. The method in brief:
as §1

Consider `CCc1cnc(-c2ccc(C(F)(F)F)cc2)nc1Cc1cccc(C(F)(F)F)c1` [Compound 22], for which the “Plant response rating, Chickweed” value is 40 in test [1] (Rate 62 g/ha), 70 in test [1] (Rate 125 g/ha) and 30 in [1] (Rate 250 g/ha). Also, the “Plant response rating, Blackgrass” value in test [2] (Rate 62 g/ha) is 30; in test [2] (Rate 125 g/ha), 60; in test [2] (Rate 250 g/ha), 40. Moreover, the “Plant response rating, Wild mustard” value in test [3] (Rate 62 g/ha) came to 30; in test [3] (Rate 125 g/ha), 60; in test [3] (Rate 250 g/ha), 30. For the same compound, the “Plant response rating, Wheat (winter)” value in [4] (Rate 62 g/ha) came to 0; in test [4] (Rate 125 g/ha), 10; in [4] (Rate 250 g/ha), 5. In addition, the “Plant response rating, Common poppy” value in [5] (Rate 62 g/ha) was determined as 60; in test [5] (Rate 125 g/ha) it was 70; in test [5] (Rate 250 g/ha), 70. Moreover, the “Plant response rating, Sugar beet” value is recorded as 30 in test [6] (Rate 62 g/ha), 100 in test [6] (Rate 125 g/ha) and 80 in [6] (Rate 250 g/ha). In addition, the “Plant response rating, Wild buckwheat” value in test [7] (Rate 125 g/ha) stood at 55; in test [7] (Rate 250 g/ha), 30. Also, the “Plant response rating, LS canarygrass” value in [8] (Rate 62 g/ha) was 20; in test [8] (Rate 125 g/ha) it was 60; in test [8] (Rate 250 g/ha), 50. The “Plant response rating, Windgrass” value in test [9] (Rate 62 g/ha) is given as 20; in test [9] (Rate 125 g/ha) it was 70; in [9] (Rate 250 g/ha) it was 30. Moreover, the “Plant response rating, Green foxtail” value is listed as 10 in [10] (Rate 62 g/ha), 100 in [10] (Rate 125 g/ha) and 100 in [10] (Rate 250 g/ha).

For the compound `COc1cnc(-c2ccc(C(F)(F)F)cc2)nc1Cc1cccc(C(F)(F)F)c1` [Compound 23], the “Plant response rating, Spanishneedles” value in test [11] (Rate 125 g/ha) and in test [11] (Rate 250 g/ha) was 100 throughout.

Turning to `Cc1cnc(-n2ccc(C(F)(F)F)n2)nc1Cc1cccc(OC(F)(F)F)c1` [Compound 42], the “Plant response rating, Spanishneedles” value in test [11] (Rate 125 g/ha) turned out to be 100.

Consider `CCc1cnc(-n2ccc(C(F)(F)F)n2)nc1Cc1cccc(C(F)(F)F)c1` [Compound 46], for which the “Plant response rating, Chickweed” value in test [1] (Rate 31 g/ha) and in test [1] (Rate 62 g/ha) was 70 each time. In addition, the “Plant response rating, Russian thistle” value in test [12] (Rate 31 g/ha) and in test [12] (Rate 62 g/ha) was 30 in each case. The “Plant response rating, Blackgrass” value in [2] (Rate 31 g/ha) is on record as 10; in test [2] (Rate 62 g/ha), 60. For the same compound, the “Plant response rating, Wild mustard” value came to 90 in [3] (Rate 31 g/ha) and 100 in test [3] (Rate 62 g/ha). Besides, the “Plant response rating, Wheat (winter)” value in test [4] (Rate 31 g/ha) came out at 40; in test [4] (Rate 62 g/ha), 2. Besides, the “Plant response rating, Common poppy” value in [5] (Rate 31 g/ha) and in test [5] (Rate 62 g/ha) was 100 in each case. The “Plant response rating, Ivyleaf speedwe” value in test [13] (Rate 31 g/ha) and in [13] (Rate 62 g/ha) was 100 in each case. In addition, the “Plant response rating, Sugar beet” value was found to be 70 in [6] (Rate 31 g/ha) and 100 in test [6] (Rate 62 g/ha). Further, the “Plant response rating, Wild buckwheat” value in [7] (Rate 31 g/ha) and in test [7] (Rate 62 g/ha) was 40 in each case. Besides, the figures for the “Plant response rating, LS canarygrass” value in [8] (Rate 31 g/ha) and in test [8] (Rate 62 g/ha) were 70 and 90, respectively. The “Plant response rating, Windgrass” value in test [9] (Rate 31 g/ha) was found to be 40; in test [9] (Rate 62 g/ha) it was 100. Moreover, the “Plant response rating, Green foxtail” value in test [10] (Rate 31 g/ha) came out at 80; in test [10] (Rate 62 g/ha), 100.

For the compound `Cc1cnc(-n2cnc(C(F)(F)F)n2)nc1Cn1ccc(C(F)(F)F)n1` [Compound 51], the figures for the “Plant response rating, Chickweed” value in test [1] (Rate 31 g/ha) and in test [1] (Rate 62 g/ha) were 80 and 90, respectively. The “Plant response rating, Russian thistle” value in [12] (Rate 31 g/ha) is recorded as 60; in test [12] (Rate 62 g/ha) it was 70. In addition, the “Plant response rating, Blackgrass” value in test [2] (Rate 31 g/ha) is recorded as 60; in [2] (Rate 62 g/ha) it was 80. The “Plant response rating, Wild mustard” value in test [3] (Rate 31 g/ha) and in test [3] (Rate 62 g/ha) was 100 in each case. The “Plant response rating, Wheat (winter)” value in test [4] (Rate 31 g/ha) was 30; in test [4] (Rate 62 g/ha) it was 55. In addition, the “Plant response rating, Common poppy” value in test [5] (Rate 31 g/ha) and in test [5] (Rate 62 g/ha) was 100 throughout. The “Plant response rating, Ivyleaf speedwe” value in test [13] (Rate 31 g/ha) and in test [13] (Rate 62 g/ha) was 100 in each case. The “Plant response rating, Sugar beet” value in test [6] (Rate 31 g/ha) and in [6] (Rate 62 g/ha) was 100 throughout. Also, the “Plant response rating, Wild buckwheat” value in [7] (Rate 31 g/ha) and in test [7] (Rate 62 g/ha) was 90 each time. Further, the “Plant response rating, LS canarygrass” value was 80 in test [8] (Rate 31 g/ha) and 90 in test [8] (Rate 62 g/ha). Besides, the “Plant response rating, Windgrass” value in test [9] (Rate 31 g/ha) and in test [9] (Rate 62 g/ha) was 100 in each case. Moreover, the “Plant response rating, Green foxtail” value in test [10] (Rate 31 g/ha) and in test [10] (Rate 62 g/ha) was 100 throughout.

Consider `Cc1cnc(-n2ccc(C(F)(F)F)n2)nc1Cn1ccc(C(F)(F)F)n1` [Compound 52], for which the “Plant response rating, Chickweed” value came out at 30 in test [1] (Rate 31 g/ha), 80 in test [1] (Rate 62 g/ha) and 85 in [1] (Rate 125 g/ha). For the same compound, the entries for the “Plant response rating, Russian thistle” value in [12] (Rate 31 g/ha), in [12] (Rate 62 g/ha) and in test [12] (Rate 125 g/ha) were 30, 85 and 85, respectively. Further, the “Plant response rating, Blackgrass” value in test [2] (Rate 31 g/ha) came out at 50; in [2] (Rate 62 g/ha) it was 80; in [2] (Rate 125 g/ha) it was 90. The “Plant response rating, Wild mustard” value in [3] (Rate 31 g/ha) is on record as 90; in test [3] (Rate 62 g/ha), 90; in test [3] (Rate 125 g/ha), 100. Also, the “Plant response rating, Wheat (winter)” value in [4] (Rate 31 g/ha) came to 50; in test [4] (Rate 62 g/ha) it was 60; in [4] (Rate 125 g/ha) it was 60. In addition, the “Plant response rating, P. morninglory” value in [14] (Rate 64 g/ha) and in test [14] (Rate 125 g/ha) was 100 each time. Further, the “Plant response rating, Sugar beet” value in test [6] (Rate 31 g/ha), in test [6] (Rate 62 g/ha) and in test [6] (Rate 125 g/ha) was 100 throughout. The “Plant response rating, Wild buckwheat” value in test [7] (Rate 31 g/ha) amounted to 40; in test [7] (Rate 62 g/ha), 60. Also, the “Plant response rating, LS canarygrass” value was 30 in test [8] (Rate 31 g/ha), 60 in [8] (Rate 62 g/ha) and 90 in test [8] (Rate 125 g/ha). Further, the figures for the “Plant response rating, Windgrass” value in test [9] (Rate 31 g/ha), in test [9] (Rate 62 g/ha) and in test [9] (Rate 125 g/ha) were 80, 100 and 100, respectively. Besides, the “Plant response rating, Green foxtail” value came to 50 in test [10] (Rate 31 g/ha), 80 in test [10] (Rate 62 g/ha) and 100 in test [10] (Rate 125 g/ha).

For `Cc1cnc(-c2ccc(C(F)(F)F)cc2)nc1Cn1ccc(C(F)(F)F)n1` [compound 9], the “Plant response rating, P. morninglory” value in test [14] (Rate 250 g/ha) stood at 100. Further, the “Plant response rating, Alexandergrass” value in [15] came out at 100.
